Reference: the Kinase Knowledgebase extract (Sharma et al. 2016)

Molecular target: CDK2 (human) (UniProt P24941)
Test: Enzyme Assay

Structure (SMILES): CC(C)N(Cc1cccc(NC(=O)Nc2csc(Cl)n2)n1)C(=O)OC(C)(C)C
- IC50: < 500 nM

Structure (SMILES): O=C(Nc1cccc(C2=CCNCC2)n1)Nc1csc(-c2ccncc2)n1
- IC50: < 500 nM

Structure (SMILES): O=C(Nc1cccc(CN2CCCC2)n1)Nc1csc(-c2ccccc2)n1
- IC50: < 500 nM

Structure (SMILES): CC(c1cccc(NC(=O)Nc2csc(-c3ccncc3)n2)n1)N1CCCCC1 (centres undefined)
- IC50: < 500 nM

Structure (SMILES): O=C(Nc1cccc(OCC2CCNCC2)n1)Nc1csc(-c2ccccc2)n1
- IC50: < 500 nM

Structure (SMILES): C[C@H]1CCCN(Cc2cccc(NC(=O)Nc3csc(-c4ccncc4)n3)n2)C1
- IC50: < 500 nM

Structure (SMILES): O=C(Nc1cccc(OCCC2CCNCC2)n1)Nc1csc(Cl)n1
- IC50: < 500 nM

Structure (SMILES): O=C(Nc1cc(C(=O)N2CCCCC2)ccn1)Nc1csc(Br)n1
- IC50: < 500 nM

Structure (SMILES): O=C(Nc1cccc(OCCC2CCNCC2)n1)Nc1csc(C2CC2)n1
- IC50: < 500 nM

Structure (SMILES): CC(C)(C)c1cnc(-c2nc(NC(=O)Nc3cccc(OCCC4CCNCC4)n3)cs2)o1
- IC50: < 500 nM

Structure (SMILES): COc1cc(-c2nc(NC(=O)Nc3cccc(CN4CCCCC4)n3)cs2)ccn1
- IC50: < 500 nM

Structure (SMILES): O=C(Nc1cc(C(=O)N2CCCCC2)ccn1)Nc1csc(-c2ccncc2)n1
- IC50: < 500 nM

Structure (SMILES): O=C(Nc1cccc(OCC2CCCO2)n1)Nc1csc(-c2ccncc2)n1 (centres undefined)
- IC50: < 500 nM

Structure (SMILES): O=C(Nc1cccc(OCCC2CCNCC2)n1)Nc1csc(Br)n1
- IC50: < 500 nM

Structure (SMILES): CC(C)(C)OC(=O)N1CCC(COc2cccc(NC(=O)Nc3csc(-c4ccncc4)n3)n2)CC1
- IC50: < 500 nM

Structure (SMILES): O=C(Nc1cccc(NCCCO)n1)Nc1csc(Br)n1
- IC50: < 500 nM

Structure (SMILES): O=C(Nc1cccc(OCCC2CCNCC2)n1)Nc1csc(-c2cccs2)n1
- IC50: < 500 nM

Structure (SMILES): O=C(Nc1csc(-c2ccncc2)n1)Nc1ncccn1
- IC50: < 500 nM

Structure (SMILES): O=C(Nc1cccc(OCCC2CCNCC2)n1)Nc1csc(-c2ccccc2)n1
- IC50: < 500 nM

Structure (SMILES): O=C(Nc1cccc(Oc2ccc(CN3CCCC3)cc2)n1)Nc1csc(Br)n1
- IC50: < 500 nM

Structure (SMILES): O=C(Nc1cccc(OCC2CCNCC2)n1)Nc1csc(-c2ccncc2)n1
- IC50: < 500 nM

Structure (SMILES): CN1CCC(c2cccc(NC(=O)Nc3csc(-c4ccccc4)n3)n2)CC1
- IC50: < 500 nM

Structure (SMILES): CCN(CC)C(=O)c1cccc(NC(=O)Nc2csc(-c3ccccc3)n2)n1
- IC50: < 500 nM

Structure (SMILES): C[C@@H]1CCCN(Cc2cccc(NC(=O)Nc3csc(-c4ccncc4)n3)n2)C1
- IC50: < 500 nM

Structure (SMILES): CCN(CC)Cc1ccnc(NC(=O)Nc2csc(-c3ccncc3)n2)c1
- IC50: < 500 nM

Structure (SMILES): O=C(Nc1cccc(OCC2CCOC2)n1)Nc1csc(-c2ccncc2)n1 (centres undefined)
- IC50: < 500 nM

Structure (SMILES): CN1CCC[C@H]1COc1cccc(NC(=O)Nc2csc(-c3ccccc3)n2)n1
- IC50: < 500 nM

Structure (SMILES): CN1CC(COc2cccc(NC(=O)Nc3csc(-c4ccccc4)n3)n2)C1
- IC50: < 500 nM

Structure (SMILES): CCN(CC)C(=O)c1ccnc(NC(=O)Nc2csc(-c3ccncc3)n2)c1
- IC50: < 500 nM

Structure (SMILES): CN1CCC(c2cccc(NC(=O)Nc3csc(-c4ccncc4)n3)n2)CC1
- IC50: < 500 nM

Structure (SMILES): CC(C)(C)OC(=O)N1CCC[C@@H]1COc1cccc(NC(=O)Nc2csc(-c3ccncc3)n2)n1
- IC50: < 500 nM

Structure (SMILES): CN1CC(COc2cccc(NC(=O)Nc3csc(-c4ccncc4)n3)n2)C1
- IC50: < 500 nM

Structure (SMILES): CN1CC=C(c2cccc(NC(=O)Nc3csc(-c4ccncc4)n3)n2)CC1
- IC50: < 500 nM

Structure (SMILES): CN1CC=C(c2cccc(NC(=O)Nc3csc(Br)n3)n2)CC1
- IC50: < 500 nM

Structure (SMILES): O=C(Nc1cccc(OCC2CNC2)n1)Nc1csc(Br)n1
- IC50: < 500 nM

Structure (SMILES): Cc1cc(C(=O)N2CCC(COc3cccc(NC(=O)Nc4csc(-c5ccncc5)n4)n3)C2)n(C(C)(C)C)n1 (centres undefined)
- IC50: < 500 nM

Structure (SMILES): CC(C)(C)OC(=O)N1CCC(CCOc2cccc(NC(=O)Nc3csc(-c4ccccc4)n3)n2)CC1
- IC50: < 500 nM

Structure (SMILES): CC(C)(C)OC(=O)N1CCCCC1CNc1cccc(NC(=O)Nc2csc(-c3ccncc3)n2)n1 (centres undefined)
- IC50: < 500 nM

Structure (SMILES): Cn1cccc1C(=O)N1CCC(COc2cccc(NC(=O)Nc3csc(-c4ccncc4)n3)n2)C1 (centres undefined)
- IC50: < 500 nM

Structure (SMILES): CC1CCCC(C)N1Cc1cccc(NC(=O)Nc2csc(-c3ccncc3)n2)n1 (centres undefined)
- IC50: < 500 nM

Structure (SMILES): O=C(Nc1cccc(OCC2CCNC2)n1)Nc1csc(-c2ccncc2)n1 (centres undefined)
- IC50: < 500 nM

Structure (SMILES): O=C(Nc1cccc(OCC2CNC2)n1)Nc1csc(Cl)n1
- IC50: < 500 nM

Structure (SMILES): O=C(Nc1cccc(NCC2CCCCN2)n1)Nc1csc(-c2ccncc2)n1 (centres undefined)
- IC50: < 500 nM

Structure (SMILES): CC(C)N(Cc1cccc(NC(=O)Nc2csc(Br)n2)n1)C(=O)OC(C)(C)C
- IC50: < 500 nM

Structure (SMILES): CC1CCCN(Cc2cccc(NC(=O)Nc3csc(-c4ccccc4)n3)n2)C1 (centres undefined)
- IC50: < 500 nM

Structure (SMILES): CN1CCC[C@H]1COc1cccc(NC(=O)Nc2csc(-c3cccc(S(N)(=O)=O)c3)n2)n1
- IC50: < 500 nM

Structure (SMILES): CCN1CCN(c2cccc(NC(=O)Nc3csc(-c4ccccc4)n3)n2)CC1
- IC50: < 500 nM

Structure (SMILES): CC(C)(C)OC(=O)N1CCC(COc2cccc(NC(=O)Nc3csc(-c4ccncc4)n3)n2)C1 (centres undefined)
- IC50: < 500 nM

Structure (SMILES): CN1CCC[C@@H]1COc1cccc(NC(=O)Nc2csc(-c3ccncc3)n2)n1
- IC50: < 500 nM

Structure (SMILES): O=C(Nc1cccc(Oc2ccc(CN3CCCC3)cc2)n1)Nc1csc(-c2ccccc2)n1
- IC50: < 500 nM

Structure (SMILES): O=C(Nc1cccc(N2CCN(c3ncccn3)CC2)n1)Nc1csc(-c2ccccc2)n1
- IC50: < 500 nM

Structure (SMILES): O=C(Nc1cc(C(=O)N2CCCCC2)ccn1)Nc1csc(-c2ccccc2)n1
- IC50: < 500 nM

Structure (SMILES): O=C(Nc1cc(CN2CCCCC2)ccn1)Nc1csc(-c2ccccc2)n1
- IC50: < 500 nM

Structure (SMILES): CC(C)NCc1cccc(NC(=O)Nc2csc(-c3ncc(C(C)(C)C)o3)n2)n1
- IC50: < 500 nM

Structure (SMILES): O=C(Nc1cccc(CN2CCCCC2)n1)Nc1csc(Cl)n1
- IC50: < 500 nM

Structure (SMILES): CN1CC=C(c2cccc(NC(=O)Nc3csc(-c4ccccc4)n3)n2)CC1
- IC50: < 500 nM

Structure (SMILES): O=C(Nc1cccc(OCC2CCNCC2)n1)Nc1csc(Cl)n1
- IC50: < 500 nM

Structure (SMILES): CC(C)(C)OC(=O)N1CC=C(c2cccc(NC(=O)Nc3csc(-c4ccncc4)n3)n2)CC1
- IC50: < 500 nM

Structure (SMILES): CC(C)(C)OC(=O)N1CC(COc2cccc(NC(=O)Nc3csc(-c4ccccc4)n3)n2)C1
- IC50: < 500 nM

Structure (SMILES): CN1CCC(COc2cccc(NC(=O)Nc3csc(-c4ccncc4)n3)n2)CC1
- IC50: < 500 nM

Structure (SMILES): CN1CCC[C@H]1COc1cccc(NC(=O)Nc2csc(CS(=O)(=O)c3cccs3)n2)n1
- IC50: < 500 nM

Structure (SMILES): O=C(Nc1cccc(NCCCO)n1)Nc1csc(-c2ccncc2)n1
- IC50: < 500 nM

Structure (SMILES): O=C(Nc1cccc(OCC2CNC2)n1)Nc1csc(-c2ccccc2)n1
- IC50: < 500 nM

Structure (SMILES): CN1CCC(COc2cccc(NC(=O)Nc3csc(-c4ccccc4)n3)n2)CC1
- IC50: < 500 nM

Structure (SMILES): CC(C)NCc1cccc(NC(=O)Nc2csc(Cl)n2)n1
- IC50: < 500 nM

Structure (SMILES): CC1CCCN(Cc2cccc(NC(=O)Nc3csc(Cl)n3)n2)C1 (centres undefined)
- IC50: < 500 nM

Structure (SMILES): O=C(Nc1cccc(OCC2CCNCC2)n1)Nc1csc(Br)n1
- IC50: < 500 nM

Structure (SMILES): CC1CCCN(Cc2cccc(NC(=O)Nc3csc(Br)n3)n2)C1 (centres undefined)
- IC50: < 500 nM

Structure (SMILES): CC(C)NCc1cccc(NC(=O)Nc2csc(-c3ccccc3)n2)n1
- IC50: < 500 nM
